Laboratory results published in publication PMC10257517 (European Journal of Medicinal Chemistry, 2023).

Tests used:
[1] = test system: SARS-CoV-2 (hCoV-19/Egypt/NRC-03/2020); assay type: cell-based; conditions: for Selectivity index (SI): SI=CC50/IC50
MTT cytotoxicity assay = assay type: cell-based; conditions: African green monkey, VERO-E6 cells
[2] = target: M^pro-SARS-CoV-2 (3CL Protease) (Severe acute respiratory syndrome coronavirus 2, UniProt P0DTD1); test: M^pro-SARS-CoV-2 inhibition, 3CL Protease; assay type: biochemical
SARS-CoV-2 = conditions: read-out: EC50 (Vero-E6 cell); against SARS-CoV-2, Vero-E6 cell; cited from earlier work
VERO-E6 cells = test: MTT cytotoxicity assay; assay type: cell-based; conditions: MTT, 24 h

Compound | Selectivity index (SI) [1] | CC50 at 24 h (MTT cytotoxicity assay) [µM] | IC50 [2] [µM] | EC50 (SARS-CoV-2) [µM] | IC50 [1] [µM] | CC50 (VERO-E6 cells) [µM]
CCOP(=O)(OCC)N1C/C(=C\c2ccccc2)C(=O)C2(C1)C(c1ccccc1)CN(C)C21C(=O)Nc2ccc(Cl)cc21 (stereo not shown) [Compound 6b, Diethyl (E)-(5″-benzylidene-5-chloro-1′-methyl-2,4″-dioxo-4′-phenyldispiro[indoline-3,2′-pyrrolidine-3′,3″-piperidin]-1″-yl)phosphonate] | 2.12 | 22 | 9.6 ± 0.66 | – | – | –
CCOP(=O)(OCC)N1C/C(=C\c2ccc(F)cc2)C(=O)C2(C1)C(c1ccc(F)cc1)CN(C)C21C(=O)Nc2ccc(Cl)cc21 (stereo not shown) [Compound 6d, Diethyl (E)-[5-chloro-5''-(4-fluorobenzylidene)-4'-(4-fluorophenyl)-1′-methyl-2,4″-dioxodispiro[indoline-3,2′-pyrrolidine-3′,3″-piperidin]-1″-yl]phosphonate] | 1.39 | 18.8 | 42.8 ± 2.53 | – | – | –
CCOP(=O)(OCC)N1C/C(=C\c2ccc(Br)cc2)C(=O)C2(C1)C(c1ccc(Br)cc1)CN(C)C21C(=O)Nc2ccccc21 (stereo not shown) [Compound 6g, Diethyl (E)-[5''-(4-bromobenzylidene)-4'-(4-bromophenyl)-1′-methyl-2,4″-dioxodispiro[indoline-3,2′-pyrrolidine-3′,3″-piperidin]-1″-yl]phosphonate] | 2.29 | 20.3 | 15.6 ± 1.02 | – | – | –
COc1cccc2[nH]c(C(=O)N[C@@H](CC(C)C)C(=O)N[C@@H](C[C@@H]3CCNC3=O)C(=O)CO)cc12 [PF-00835231] | – | – | – | ≤ 0.23 | – | –
Diethyl (E)-(5″-benzylidene-1′-methyl-2,4″-dioxo-4′-phenyldispiro[indoline-3,2′-pyrrolidine-3′,3″-piperidin]-1″-yl)phosphonate [Compound 6a] | – | – | – | – | 88.6 | 73.1
Diethyl (E)-[1′-methyl-2,4″-dioxo-4'-(thiophen-2-yl)-5''-(thiophen-2-ylmethylene)dispiro[indoline-3,2′-pyrrolidine-3′,3″-piperidin]-1″-yl]phosphonate [Compound 6k] | – | – | – | – | 106 | 49.9
Diethyl (E)-[1′-methyl-5''-(4-methylbenzylidene)-2,4″-dioxo-4'-(p-tolyl)dispiro[indoline-3,2′-pyrrolidine-3′,3″-piperidin]-1″-yl]phosphonate [Compound 6i] | – | – | – | – | 35.2 | 87
Diethyl (E)-[5''-(4-chlorobenzylidene)-4'-(4-chlorophenyl)-1′-methyl-2,4″-dioxodispiro[indoline-3,2′-pyrrolidine-3′,3″-piperidin]-1″-yl]phosphonate [Compound 6e] | – | – | – | – | 340 | 9.83
Diethyl (E)-[5''-(4-fluorobenzylidene)-4'-(4-fluorophenyl)-1′-methyl-2,4″-dioxodispiro[indoline-3,2′-pyrrolidine-3′,3″-piperidin]-1″-yl]phosphonate [Compound 6c] | – | – | – | – | 85.8 | 126
Diethyl (E)-[5''-(4-methoxybenzylidene)-4'-(4-methoxyphenyl)-1′-methyl-2,4″-dioxodispiro[indoline-3,2′-pyrrolidine-3′,3″-piperidin]-1″-yl]phosphonate [Compound 6h] | – | – | – | – | 46.7 | 38.3
Diethyl (E)-[5-chloro-1′-methyl-2,4″-dioxo-4'-(thiophen-2-yl)-5''-(thiophen-2-ylmethylene)dispiro[indoline-3,2′-pyrrolidine-3′,3″-piperidin]-1″-yl]phosphonate [Compound 6l] | – | – | – | – | 578 | 23.7
Diethyl (E)-[5-chloro-1′-methyl-5''-(4-methylbenzylidene)-2,4″-dioxo-4'-(p-tolyl)dispiro[indoline-3,2′-pyrrolidine-3′,3″-piperidin]-1″-yl]phosphonate [Compound 6j] | – | – | – | – | 21.7 | 40.1
Diethyl (E)-[5-chloro-5''-(4-chlorobenzylidene)-4'-(4-chlorophenyl)-1′-methyl-2,4″-dioxodispiro[indoline-3,2′-pyrrolidine-3′,3″-piperidin]-1″-yl]phosphonate [Compound 6f] | – | – | – | – | 7.26 | 10
